Patent publication US20030176366A1, “Topical application of ascorbic acid compounds for augmenting the synthesis of epidermal ceramides” (SOCIETE L'OREAL S.A., priority 2000, published 2003)

Columns and labels:
reconstructed epidermes = assay: Lipid profile of treated reconstructed epidermes (densitometric analysis); assay type: cell-based; conditions: applied for 6 days at 1.10×10^−4 M; relative to the control and relative to ascorbic acid; not quantified
Experimental: The test described in Example 1 was repeated using various ascorbic acid derivatives, applied for 6 days at 1.10×10^-4 M on reconstructed […] subjected to 7 days of culture. The quantity of epidermal ceramides produced was, however, not quantified. Instead, a densitometric analysis was carried out using a CAMAG TLC® model Scanner 3 densitometric reader. The lipid profile of the treated […] determined, in which: The lipid content was determined of the sample of reconstructed epidermis either untreated (control), or treated with ascorbic acid (vitamin C) or with one of the ascorbic acid derivatives A to G indicated above.

[1] = system: skin equivalent marketed by EPISKIN; assay: Effect on the synthesis of epidermal lipids in EPISKIN skin equivalent (HPTLC, densitometry); assay type: cell-based; conditions: for percentage increase in Ceramides 4-7 relative to the untreated control / percentage increase in cer. 6-7 relative to the untreated control: treated for five days
Experimental: Ascorbyl glucoside and ascorbic acid itself were tested on a skin equivalent marketed by EPISKIN (Lyon, France), after culturing the latter for 7 days. The culture and assay media were those contained in the kit marketed by the supplier. Each compound was tested at 5 μg/ml and 0.05 μg/ml (as vitamin C equivalent) in the culture medium. The reconstructed epidermes were treated for five days, the culture medium being replaced every 48 hours. The control consisted of an identical epidermis equivalent which was subjected to topical application of culture medium without the compound to be tested.
At the end of the incubation period, the epidermis equivalent was detached from its collagenic support. The preparation of the lipids of the epidermis equivalent and their analysis by HPTLC or high-performance thin-layer chromatography were carried out according to the technique and with the buffers described by M. Ponec (1991, Adv. Lipid Res., 24:83-117). At the end of the migration, densitometric analysis was carried out using a CAMAG TLC model Scanner 3 densitometric reader.
The results obtained are reported in the Table below as a percentage increase in ceramides 4, 5, 6 and 7 relative to the untreated control.

[2] = 0.05 μg/ml as vitamin C equiv. in culture medium
[3] = 5 μg/ml as vitamin C equiv. in culture medium

In the case of `COC(=O)COC1=C(OCC(=O)OC)C(C(O)CO)OC1=O` (stereo not shown) [Compound E, ascorbyl 2,3-bis(methoxycarbonyl-methoxy) ether, reference compound], the “polar ceramide content of reconstructed epidermes / effect on epidermal lipogenesis” value (reconstructed epidermes) was “no significant effect on the epidermal lipogenesis”.

`CC1(C)OCC(C2OC(=O)C(OC(=O)c3ccccc3)=C2O)O1` (stereo not shown) [Compound G, (5,6-isopropylidene)ascorbyl 2-benzoate] was tested, and the “polar ceramide content of reconstructed epidermes / effect on epidermal lipogenesis” value (reconstructed epidermes) was “significantly increases the polar ceramide content”.

`O=C1O[C@H]([C@@H](O)CO)C(O)=C1OS(=O)(=O)[O-].O=C1O[C@H]([C@@H](O)CO)C(O)=C1OS(=O)(=O)[O-].[Ba+2]` [Compound F, barium 2-ascorbyl sulfate, reference compound] was tested, and the “polar ceramide content of reconstructed epidermes / effect on epidermal lipogenesis” value (reconstructed epidermes) was “no significant effect on the epidermal lipogenesis”.

For `CC1(C)OCC(C2OC(=O)C(O[C@H]3O[C@H](CO)[C@@H](O)[C@H](O)[C@H]3O)=C2O)O1` (stereo partly drawn) [Compound A, 2-O-α-D-glucopyranosyl of (5,6-isopropylidene)ascorbic acid], the “polar ceramide content of reconstructed epidermes / effect on epidermal lipogenesis” value (reconstructed epidermes) was “significantly increases the polar ceramide content”.

In the case of `COc1cc(/C=C/C(=O)OC2=C(O)[C@@H]([C@@H](O)CO)OC2=O)ccc1O` [Compound C, ascorbyl 2-ferulate], the “polar ceramide content of reconstructed epidermes / effect on epidermal lipogenesis” value (reconstructed epidermes) was “significantly increases the polar ceramide content”.

`O=C(/C=C/c1ccccc1)OC1=C(O)[C@@H]([C@@H](O)CO)OC1=O` [Compound B, ascorbyl 2-cinnamate] was tested, and the “polar ceramide content of reconstructed epidermes / effect on epidermal lipogenesis” value (reconstructed epidermes) was “significantly increases the polar ceramide content”.

`O=C1O[C@H]([C@@H](O)CO)C(O)=C1O` [ascorbic acid] was tested, and the “percentage increase in Ceramides 4-7 relative to the untreated control” value [1, 2] was “+7%”, the “percentage increase in cer. 6-7 relative to the untreated control” value [1, 2] was “+15%” and the “percentage increase in Ceramides 4-7 relative to the untreated control” value [1, 3] was “+21%”. The “percentage increase in cer. 6-7 relative to the untreated control” value [1, 3] was −17%.

In the case of `CCCCCCCCCCCCCCCC(=O)OC1=C(O)C(C2COC(C)(C)O2)OC1=O` (stereo not shown) [Compound D, (5,6-isopropylidene)ascorbyl 2-hexadecanoate], the “polar ceramide content of reconstructed epidermes / effect on epidermal lipogenesis” value (reconstructed epidermes) was “significantly increases the polar ceramide content”.

For `O=C1O[C@H]([C@@H](O)CO)C(O)=C1O[C@H]1O[C@H](CO)[C@@H](O)[C@H](O)[C@H]1O` [ascorbyl glucoside, 2-O-α-D-glucopyranosyl of L-ascorbic acid], the “percentage increase in Ceramides 4-7 relative to the untreated control” value [1, 2] was “+11%”, the “percentage increase in cer. 6-7 relative to the untreated control” value [1, 2] was “+65%” and the “percentage increase in Ceramides 4-7 relative to the untreated control” value [1, 3] was “+40%”. The “percentage increase in cer. 6-7 relative to the untreated control” value [1, 3] was “+59%” and the “increase in the synthesis of the epidermal lipids (in particular of the most polar ceramides) compared with ascorbic acid” value ([1]; tested at the same concentration as ascorbic acid) was “much higher for ascorbyl glucoside than for ascorbic acid”.
